Experimental data from US10052320B2, “Substituted quinoxalines as FGFR kinase inhibitors” (ASTEX THERAPEUTICS LIMITED, priority 2011, dated 2018).
Where two headings read alike, the source gives them in different places.

Experiments:
FGFR1 (h) = FGFR1 (h) (Homo sapiens, UniProt P11362); assay: FGFR1 (enzymatic assay), TR-FRET; assay type: biochemical; conditions: read-out: FGFR 1 pIC50 (converted)
Experimental: (§1) In a final reaction volume of 30 μL, FGFR1 (h) (25 ng/ml) was incubated with 50 mM HEPES pH 7.5, 6 mM MnCl2, 1 mM DTT, 0.1 mM Na3VO4, 0.01% Triton-X-100, 500 nM Btn-Flt3 and 5 μM ATP in the presence of compound (1% DMSO final). […] Time-Resolved Fluorescence Resonance Energy Transfer (TR-FRET) signal (ex340 nm. Em 620 nm, em 655 nm) was measured afterwards and results are expressed in RFU (Relative Fluorescence Units).

FGFR2 (h) = FGFR2 (h) (Homo sapiens, UniProt P21802); assay: FGFR2 (enzymatic assay), TR-FRET; assay type: biochemical; conditions: read-out: FGFR 2 pIC50 (converted)
Experimental: as §1, with “μL, FGFR2” for “μL, FGFR1”, “(h) (150” for “(h) (25”, “and 0.4” for “and 5”, “in” for “in RFU”

[1] = biological target: Ba/F3-FGFR1-transfected cells (Homo sapiens, UniProt P11362); assay: Ba/F3-FGFR1 (minus IL3) cellular proliferation assay, Alamar Blue; assay type: cell-based; conditions: for BAF3-FGFR 1 (MIN IL3) 384 well pIC50: minus IL3, 384 well
Experimental: Ba/F3-FGFR1 (Minus IL3 or Plus IL3) (Cellular Proliferation Assay)
(§2) Cells were put in an incubator at 37° C. and 5% CO2. After 24 hours, 10 μl of Alamar Blue solution (0.5 mM K3Fe(CN)6, 0.5 mM KaFe(CN)6, 0.15 mM Resazurin and 100 mM Phosphate Buffer) was added to the wells, incubated for 4 hours at 37° C. and 5% CO2 before RFU's (Relative Fluorescence Units) (ex. 540 nm., em. 590 nm.) were measured in a flurorescence plate reader. […]
(§3) In a 96 well plate, 180 μl cell culture medium (phenol red free RPMI-1640, 10% FBS, 2 mM L-Glutamine and 50 μg/ml Gentamycin) containing 10000 cells per well of Ba/F3-FGFR1-transfected cells were pipette and 20 μl of compound dilution in DMSO was added. Cells were put in an incubator at 37° C. and 5% CO2. After 24 hours, 40 μl of Alamar Blue solution (0.5 mM K3Fe(CN)6, 0.5 mM KaFe(CN)6, 0.15 mM Resazurin and 100 mM Phosphate Buffer) was added to the wells, incubated for 4 hours at 37° C. and 5% CO2 before RFU's (Relative Fluorescence Units) (ex. 540 nm., em. 590 nm.) were measured in a flurorescence plate reader.

[2] = test system: Ba/F3-FGFR1-transfected cells in the presence of 10 ng/ml murine IL3; assay: Ba/F3-FGFR1 (plus IL3) cellular proliferation counterscreen, Alamar Blue; assay type: cell-based; conditions: Mus musculus
How it was run: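 Readout: resazurin reduction, RFU at ex 540 nm/em 590 nm, measured after 4 h with Alamar Blue. This follows 24 h compound treatment (DMSO dilutions) at 37 °C, 5% CO2 in phenol red-free RPMI-1640 plus 10% FBS, at 20000 or 10000 cells/well depending on format.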

[3] = biological target: Ba/F3-FGFR3-transfected cells (Homo sapiens, UniProt P22607); assay: Ba/F3-FGFR3 (minus IL3) cellular proliferation assay, Alamar Blue; assay type: cell-based; conditions: for BAF3-FGFR 3 (MIN IL3) 384 well pIC50: minus IL3, 384 well
Experimental: Ba/F3-FGFR3 (Minus IL3 or Plus IL3) (Cellular Proliferation Assay)
as §2
as §3, with “Ba/F3-FGFR3-transfected” for “Ba/F3-FGFR1-transfected”

[4] = biological target: Ba/F3-FGFR4-transfected cells (Homo sapiens, UniProt P22455); assay: Ba/F3-FGFR4 cellular proliferation assay, Alamar Blue; assay type: cell-based
Experimental: Ba/F3-FGFR4 (Cellular Proliferation Assay)
as §3, with “a 384” for “a 96”, “plate, 100 nl of compound dilution in DMSO was sprayed before adding 50” for “plate, 180”, “containing 20000” for “containing 10000”, “of Ba/F3-FGFR4-transfected cells.” for “of Ba/F3-FGFR1-transfected cells were pipette and 20 μl of compound dilution in DMSO was added.”, “hours, 10” for “hours, 40”

[5] = plus IL3, 384 well, read-out: BAF3-FGFR 1 (PLUS IL3) 384 well pIC50 (converted)

Sequence of FGFR1 (h) (P11362 22-822): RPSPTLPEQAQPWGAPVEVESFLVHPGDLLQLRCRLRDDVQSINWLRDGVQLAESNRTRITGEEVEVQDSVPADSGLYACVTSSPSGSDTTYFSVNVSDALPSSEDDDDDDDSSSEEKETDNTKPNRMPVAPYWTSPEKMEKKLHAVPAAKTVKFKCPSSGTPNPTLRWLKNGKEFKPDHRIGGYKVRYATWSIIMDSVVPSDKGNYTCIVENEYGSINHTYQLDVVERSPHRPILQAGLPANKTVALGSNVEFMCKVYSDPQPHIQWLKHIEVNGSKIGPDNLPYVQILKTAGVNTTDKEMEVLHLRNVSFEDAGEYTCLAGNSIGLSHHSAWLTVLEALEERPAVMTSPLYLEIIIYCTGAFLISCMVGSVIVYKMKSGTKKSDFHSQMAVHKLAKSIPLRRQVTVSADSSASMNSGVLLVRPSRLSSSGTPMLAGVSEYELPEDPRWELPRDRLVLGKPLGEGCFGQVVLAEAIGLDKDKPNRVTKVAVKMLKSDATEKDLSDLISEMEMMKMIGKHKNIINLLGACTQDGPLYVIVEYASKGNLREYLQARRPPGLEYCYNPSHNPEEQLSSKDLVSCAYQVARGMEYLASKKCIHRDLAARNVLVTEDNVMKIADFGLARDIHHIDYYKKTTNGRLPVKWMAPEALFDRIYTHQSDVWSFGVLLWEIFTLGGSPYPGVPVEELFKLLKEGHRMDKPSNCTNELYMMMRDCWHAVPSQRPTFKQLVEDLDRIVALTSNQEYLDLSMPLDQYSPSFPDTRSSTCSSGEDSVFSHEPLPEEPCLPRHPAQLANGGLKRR
Sequence of Ba/F3-FGFR1-transfected cells (P11362 whole entry, change not shown): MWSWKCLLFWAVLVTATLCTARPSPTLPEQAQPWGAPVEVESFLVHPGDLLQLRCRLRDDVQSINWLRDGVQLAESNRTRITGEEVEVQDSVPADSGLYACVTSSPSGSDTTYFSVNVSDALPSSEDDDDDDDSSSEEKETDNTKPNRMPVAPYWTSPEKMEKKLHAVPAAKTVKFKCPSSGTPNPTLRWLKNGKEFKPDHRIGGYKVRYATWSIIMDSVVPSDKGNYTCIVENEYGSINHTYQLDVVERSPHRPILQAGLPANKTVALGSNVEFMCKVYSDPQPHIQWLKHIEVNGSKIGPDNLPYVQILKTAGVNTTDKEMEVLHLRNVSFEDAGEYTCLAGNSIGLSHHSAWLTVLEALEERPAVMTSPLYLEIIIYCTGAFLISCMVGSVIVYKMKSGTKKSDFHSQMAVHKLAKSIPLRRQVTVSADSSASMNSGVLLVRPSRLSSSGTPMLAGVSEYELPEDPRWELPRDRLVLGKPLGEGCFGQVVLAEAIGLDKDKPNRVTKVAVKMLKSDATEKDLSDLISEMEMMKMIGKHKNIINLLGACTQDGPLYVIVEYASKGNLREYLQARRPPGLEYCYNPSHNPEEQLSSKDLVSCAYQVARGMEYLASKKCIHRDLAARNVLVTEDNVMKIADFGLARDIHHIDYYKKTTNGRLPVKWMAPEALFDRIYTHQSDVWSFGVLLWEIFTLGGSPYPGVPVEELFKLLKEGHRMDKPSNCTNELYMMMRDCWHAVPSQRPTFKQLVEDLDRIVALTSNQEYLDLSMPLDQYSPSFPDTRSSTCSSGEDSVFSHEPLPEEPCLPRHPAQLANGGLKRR
Sequence of Ba/F3-FGFR4-transfected cells (P22455 whole entry, change not shown): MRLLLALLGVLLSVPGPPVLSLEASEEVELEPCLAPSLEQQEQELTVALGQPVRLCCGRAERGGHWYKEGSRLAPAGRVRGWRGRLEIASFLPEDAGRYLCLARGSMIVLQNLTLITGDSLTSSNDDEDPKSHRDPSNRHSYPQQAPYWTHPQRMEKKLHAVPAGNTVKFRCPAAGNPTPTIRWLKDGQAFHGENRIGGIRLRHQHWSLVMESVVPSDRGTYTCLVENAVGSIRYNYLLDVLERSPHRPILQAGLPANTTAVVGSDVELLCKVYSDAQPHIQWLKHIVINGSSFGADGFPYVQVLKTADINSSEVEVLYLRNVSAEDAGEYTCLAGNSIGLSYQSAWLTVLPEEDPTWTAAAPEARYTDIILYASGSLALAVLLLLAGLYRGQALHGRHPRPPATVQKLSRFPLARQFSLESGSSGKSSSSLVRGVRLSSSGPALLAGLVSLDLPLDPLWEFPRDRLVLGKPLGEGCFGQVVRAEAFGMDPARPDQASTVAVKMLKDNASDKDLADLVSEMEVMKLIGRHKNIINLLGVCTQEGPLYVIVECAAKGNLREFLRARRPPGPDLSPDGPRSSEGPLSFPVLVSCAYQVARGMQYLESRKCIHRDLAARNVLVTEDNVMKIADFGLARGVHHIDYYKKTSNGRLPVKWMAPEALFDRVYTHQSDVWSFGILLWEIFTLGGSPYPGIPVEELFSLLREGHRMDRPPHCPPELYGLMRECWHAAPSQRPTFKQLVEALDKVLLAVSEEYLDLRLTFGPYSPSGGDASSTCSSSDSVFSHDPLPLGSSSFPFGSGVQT
Sequence of Ba/F3-FGFR3-transfected cells (P22607 whole entry, change not shown): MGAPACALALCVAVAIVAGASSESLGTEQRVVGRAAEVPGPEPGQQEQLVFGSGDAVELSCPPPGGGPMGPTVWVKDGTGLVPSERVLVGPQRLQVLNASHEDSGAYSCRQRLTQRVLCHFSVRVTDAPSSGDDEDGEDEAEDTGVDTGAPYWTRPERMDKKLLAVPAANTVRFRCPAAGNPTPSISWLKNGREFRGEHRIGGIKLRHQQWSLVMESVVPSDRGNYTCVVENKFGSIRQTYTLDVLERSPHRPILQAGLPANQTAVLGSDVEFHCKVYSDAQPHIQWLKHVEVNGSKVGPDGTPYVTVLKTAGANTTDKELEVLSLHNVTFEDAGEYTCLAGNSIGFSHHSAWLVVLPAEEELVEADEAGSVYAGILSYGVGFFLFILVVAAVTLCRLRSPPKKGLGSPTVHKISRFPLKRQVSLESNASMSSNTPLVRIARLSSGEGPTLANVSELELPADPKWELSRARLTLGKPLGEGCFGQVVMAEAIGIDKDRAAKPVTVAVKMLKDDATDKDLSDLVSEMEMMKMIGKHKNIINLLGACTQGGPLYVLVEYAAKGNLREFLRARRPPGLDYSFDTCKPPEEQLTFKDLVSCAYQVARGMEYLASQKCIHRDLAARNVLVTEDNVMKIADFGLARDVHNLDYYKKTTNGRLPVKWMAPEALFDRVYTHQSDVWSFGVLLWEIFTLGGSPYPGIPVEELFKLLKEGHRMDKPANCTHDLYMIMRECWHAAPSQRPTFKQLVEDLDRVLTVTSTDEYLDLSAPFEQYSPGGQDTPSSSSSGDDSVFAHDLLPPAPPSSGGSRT
Sequence of FGFR2 (h) (P21802 22-821): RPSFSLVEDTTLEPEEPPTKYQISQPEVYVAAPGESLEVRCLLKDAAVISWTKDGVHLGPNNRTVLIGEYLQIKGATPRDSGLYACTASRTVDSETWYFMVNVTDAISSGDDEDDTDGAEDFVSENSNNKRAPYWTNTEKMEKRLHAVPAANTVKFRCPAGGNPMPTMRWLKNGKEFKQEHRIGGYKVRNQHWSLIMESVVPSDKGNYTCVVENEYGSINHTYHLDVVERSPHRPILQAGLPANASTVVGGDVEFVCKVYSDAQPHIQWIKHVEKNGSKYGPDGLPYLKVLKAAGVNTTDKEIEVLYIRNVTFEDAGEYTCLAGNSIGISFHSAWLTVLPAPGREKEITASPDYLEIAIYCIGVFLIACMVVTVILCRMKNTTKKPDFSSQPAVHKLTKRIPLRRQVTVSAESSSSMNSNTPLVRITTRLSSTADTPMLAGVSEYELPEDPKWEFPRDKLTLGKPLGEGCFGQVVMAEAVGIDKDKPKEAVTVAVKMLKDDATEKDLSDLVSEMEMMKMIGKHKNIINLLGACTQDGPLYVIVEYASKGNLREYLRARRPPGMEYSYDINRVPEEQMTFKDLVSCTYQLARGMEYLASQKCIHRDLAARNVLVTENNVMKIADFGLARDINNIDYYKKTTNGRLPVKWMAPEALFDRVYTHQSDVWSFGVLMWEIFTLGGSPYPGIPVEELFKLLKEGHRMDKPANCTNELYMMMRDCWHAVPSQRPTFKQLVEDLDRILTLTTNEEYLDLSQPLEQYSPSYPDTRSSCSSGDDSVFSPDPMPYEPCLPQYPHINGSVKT

Row | Structure (SMILES) | IC50 (FGFR1 (h)) [nM] | IC50 (FGFR2 (h)) [nM] | BAF3-FGFR 1 (MIN IL3) 384 well pIC50 [1] | IC50 [2, 5] [µM] | BAF3-FGFR 3 (MIN IL3) 384 well pIC50 [3] | BAF3-FGFR4 pIC50 [4] | BAF3-FGFR 1 (MIN IL3) 96 well pIC50 ([1]; minus IL3, 96 well) | IC50 ([2]; plus IL3, 96 well, read-out: BAF3-FGFR 1 (PLUS IL3) 96 well pIC50 (converted)) [µM] | BAF3-FGFR 3 (MIN IL3) 96 well pIC50 ([3]; minus IL3, 96 well)
1 | COc1cc(OC)cc(N(CCN)c2ccc3ncc(-c4ccn(C)c4)nc3c2)c1 [Compound 79] | 1.2 | 2.63 | 6.9 | > 10 | ~6.64 | 6.7 |  |  | 
2 | COc1cc(OC)cc(N(CC2CC2)c2ccc3ncc(C(=O)N4CCC4)nc3c2)c1 [Compound 93] | > 10000 | > 10000 | <5 | > 10 | <5 | <5 | <5 | > 10 | <5
3 | CNc1ccc(-c2cnc3ccc(N(CCCNCC(F)(F)F)c4cc(OC)cc(OC)c4)cc3n2)cn1 [Compound 129] | 19.5 | 37.2 | 5.62 | > 10 | 5.89 | 5.4 |  |  | 
4 | COc1cc(OC)cc(N(CCCO)c2ccc3ncc(-c4ccnc(C(=O)NCCCCCN)c4)nc3c2)c1 [Compound 130] | 17.4 | 8.32 | 5.1 | > 10 | 5.2 | 5.0 |  |  | 
5 | COc1cc(OC)cc(N(CCCNC(C)C)c2ccc3ncc(-c4ccnc(NC(=O)NC(C)C)c4)nc3c2)c1 [Compound 131] | 2.09 | 4.68 | 6.44 | 3.98 | 6.08 | 6.0 |  |  | 
6 | COc1cc(OC)cc(N(CCCNCCCO)c2ccc3ncc(-c4ccnc(C(=O)NCCCCN)c4)nc3c2)c1 [Compound 132] | 4.37 | 8.71 | 5.8 | > 10 | 5.57 | 5.6 |  |  | 
7 | COc1cc(OC)cc(N(CCCO)c2ccc3ncc(-c4ccnc(-c5ccnc(Cl)c5)c4)nc3c2)c1 [Compound 133] | 110 | 115 | <5 | > 10 | <5 | <5 |  |  | 
8 | COc1cc(OC)cc(N(CCCO)c2ccc3ncc(-c4ccnc(Cl)c4)nc3c2)c1 [Compound 136] | 24 | 25.7 | 5.63 | > 10 | 5.71 | <5 |  |  | 
9 | COc1cc(OC)cc(N(CCO)c2ccc3ncc(-c4ccnc(C(=O)NCCCCCO)c4)nc3c2)c1 [Compound 139] | 31.6 | 39.8 | 5.35 | > 10 | 5.72 | <5 |  |  | 
10 | COc1cc(OC)cc(N(CCCO)c2ccc3ncc(-c4ccnc(F)c4)nc3c2)c1 [Compound 142] | 12.6 | 25.1 | 5.64 | > 10 | 5.85 | 5.6 |  |  | 
11 | COc1cc(OC)cc(N(CCCNC(C)C)c2ccc3ncc(-c4ccnc(N)c4)nc3c2)c1 [Compound 143] | 1.05 | 3.39 | 6.56 | 5.62 | 6.4 | 6.9 |  |  | 
12 | COc1cc(OC)cc(N(CCCNCC(F)(F)F)c2ccc3ncc(-c4ccnc(F)c4)nc3c2)c1 [Compound 144] | 74.1 | ~85.1 | <5 | > 10 | 5.1 | <5 |  |  | 
13 | COc1cc(OC)cc(N(CCCNCC(F)(F)F)c2ccc3ncc(-c4ccnc(Cl)c4)nc3c2)c1 [Compound 145] | 115 | 166 | <5 | > 10 | <5 | <5.35 |  |  | 
14 | COc1cc(OC)cc(N(CCNC(C)C)c2ccc3ncc(-c4ccnc(C(=O)NCCCN)c4)nc3c2)c1 [Compound 146] | 2 | 8.13 | 6.46 | > 10 | 6.41 | 6.3 |  |  | 
15 | COc1cc(OC)cc(N(CCCNCC(F)(F)F)c2ccc3ncc(-c4ccnc(C(=O)NCCCN)c4)nc3c2)c1 [Compound 148] | 36.3 | 58.9 | <5 | > 10 | <5 | <5 |  |  | 
16 | COc1cc(OC)cc(N(CCCO)c2ccc3ncc(-c4cccnc4F)nc3c2)c1 [Compound 149] | 60.3 | 102 | 5.32 | > 10 | 5.32 | 5.6 |  |  | 
17 | COc1cc(OC)cc(N(CCCNCC(F)(F)F)c2ccc3ncc(-c4ccnc(C(=O)NCCCCCO)c4)nc3c2)c1 [Compound 150] | 91.2 | 70.8 | 5.16 | > 10 | 5.11 | ~5.0 |  |  | 
18 | COc1cc(OC)cc(N(CCO)c2ccc3ncc(-c4ccccc4CCO)nc3c2)c1 [Compound 151] | 282 | 513 | 5.52 | > 10 | 5.11 | <5 |  |  | 
19 | COc1cc(OC)cc(N(CCO)c2ccc3ncc(-c4ccc(N5CCN(C(=O)OC(C)(C)C)CC5)cc4)nc3c2)c1 [Compound 156] | 45.7 | 95.5 | 5.7 | 8.91 | 5.79 | 5.4 |  |  | 
20 | COc1cc(OC)cc(N(CCCNCC(F)(F)F)c2ccc3ncc(C(=O)NCCN4CCOCC4)nc3c2)c1 [Compound 158] | 398 | 661 | <5 | > 10 | <5 | 5.1 |  |  | 
21 | COc1cc(OC)cc(N(CCNC(C)C)c2ccc3ncc(C(=O)NCCCN4CCN(C)CC4)nc3c2)c1 [Compound 159] | 31.6 | 66.1 | 5.74 | > 10 | 5.82 | ~5.5 |  |  | 
